Patent publication US20260207585A1, “METHODS AND COMPOSITIONS FOR THE TREATMENT OF PARKINSON'S DISEASE, HUNTINGTON'S DISEASE, AMYOTROPHIC LATERAL SCLEROSIS, AND LEARNING DISORDERS” (Cedars-Sinai Medical Center, priority 2022, published 2026)

Key:
Assay type in all cases: biochemical
SET8 = target: T1, SET8 (Homo sapiens, UniProt Q9NQR1); experiment: Methyltransferase inhibition panel: SET8; settings: control compound; substrate Nucleosomes 0.05 mg/mL
T1 sequence (Q9NQR1 1-393): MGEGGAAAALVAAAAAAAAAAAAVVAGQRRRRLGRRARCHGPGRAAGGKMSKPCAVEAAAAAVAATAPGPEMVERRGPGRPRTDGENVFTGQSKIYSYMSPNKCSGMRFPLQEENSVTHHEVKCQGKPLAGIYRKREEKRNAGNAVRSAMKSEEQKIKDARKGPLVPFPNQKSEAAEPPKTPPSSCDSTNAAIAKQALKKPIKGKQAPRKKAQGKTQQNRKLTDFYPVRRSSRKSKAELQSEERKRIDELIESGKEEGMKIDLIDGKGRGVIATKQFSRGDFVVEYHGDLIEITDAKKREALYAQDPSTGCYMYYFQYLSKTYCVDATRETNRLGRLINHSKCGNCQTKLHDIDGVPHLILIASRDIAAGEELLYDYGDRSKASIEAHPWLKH
Protocol: (§1) The ability of ETP69 to inhibit methyltransferases was tested.

ASH1L = ASH1L (Homo sapiens, UniProt Q9NR48); experiment: Methyltransferase inhibition panel: ASH1L; settings: control compound; substrate Nucleosomes 0.05 mg/mL
Protocol: as §1

NSD3 = target: T2, NSD3 (Homo sapiens, UniProt Q9BZ95); experiment: Methyltransferase inhibition panel: NSD3; settings: control compound; substrate Nucleosomes 0.05 mg/mL
T2 sequence (Q9BZ95 1-1437): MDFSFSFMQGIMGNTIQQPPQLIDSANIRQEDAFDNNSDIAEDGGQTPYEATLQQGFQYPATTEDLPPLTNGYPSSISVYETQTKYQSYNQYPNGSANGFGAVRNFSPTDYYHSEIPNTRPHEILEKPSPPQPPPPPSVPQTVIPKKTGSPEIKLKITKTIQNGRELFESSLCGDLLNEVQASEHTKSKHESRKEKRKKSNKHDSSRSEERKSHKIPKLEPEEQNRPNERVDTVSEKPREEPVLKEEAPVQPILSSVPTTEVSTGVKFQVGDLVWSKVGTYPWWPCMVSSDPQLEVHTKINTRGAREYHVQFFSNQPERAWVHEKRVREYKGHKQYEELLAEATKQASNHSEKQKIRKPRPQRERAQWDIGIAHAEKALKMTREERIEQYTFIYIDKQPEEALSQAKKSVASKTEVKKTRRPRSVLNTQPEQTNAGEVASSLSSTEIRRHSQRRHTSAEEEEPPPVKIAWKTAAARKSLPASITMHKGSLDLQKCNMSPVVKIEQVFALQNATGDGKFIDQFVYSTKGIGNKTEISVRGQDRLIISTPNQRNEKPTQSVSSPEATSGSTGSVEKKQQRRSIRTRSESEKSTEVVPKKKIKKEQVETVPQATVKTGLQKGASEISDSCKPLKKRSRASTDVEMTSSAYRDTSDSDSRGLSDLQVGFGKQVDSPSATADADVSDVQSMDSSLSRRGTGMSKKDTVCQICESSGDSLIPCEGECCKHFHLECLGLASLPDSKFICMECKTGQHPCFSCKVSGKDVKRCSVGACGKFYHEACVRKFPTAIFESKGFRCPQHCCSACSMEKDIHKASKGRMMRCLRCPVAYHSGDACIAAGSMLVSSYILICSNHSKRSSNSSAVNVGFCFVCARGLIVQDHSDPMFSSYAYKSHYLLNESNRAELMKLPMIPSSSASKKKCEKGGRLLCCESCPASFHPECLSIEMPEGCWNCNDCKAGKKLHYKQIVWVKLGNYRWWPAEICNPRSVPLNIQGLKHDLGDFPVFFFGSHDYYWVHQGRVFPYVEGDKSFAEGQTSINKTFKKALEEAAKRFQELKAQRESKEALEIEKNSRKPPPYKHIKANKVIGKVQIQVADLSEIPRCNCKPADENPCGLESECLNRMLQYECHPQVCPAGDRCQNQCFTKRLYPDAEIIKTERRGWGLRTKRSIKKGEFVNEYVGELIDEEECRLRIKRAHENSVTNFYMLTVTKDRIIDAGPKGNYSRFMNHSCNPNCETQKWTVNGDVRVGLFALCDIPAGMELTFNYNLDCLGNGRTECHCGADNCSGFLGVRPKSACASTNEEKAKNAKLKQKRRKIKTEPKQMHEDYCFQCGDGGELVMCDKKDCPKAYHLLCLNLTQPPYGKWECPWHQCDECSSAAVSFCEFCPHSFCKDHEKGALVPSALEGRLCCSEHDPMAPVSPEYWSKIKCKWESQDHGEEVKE
Protocol: as §1

DNMT3a = DNMT3a (Homo sapiens, UniProt Q9Y6K1); experiment: Methyltransferase inhibition panel: DNMT3a; settings: read-out: Control IC50*
Protocol: as §1

DNMT3b = DNMT3b (Homo sapiens, UniProt Q9UBC3); experiment: Methyltransferase inhibition panel: DNMT3b; settings: read-out: Control IC50*
Protocol: as §1

DNMT3b/3L = DNMT3b/3L (Homo sapiens, UniProt Q9UBC3); experiment: Methyltransferase inhibition panel: DNMT3b/3L; settings: read-out: Control IC50*
Protocol: as §1

GLP = target: T3, GLP (Homo sapiens, UniProt Q9H9B1); experiment: Methyltransferase inhibition panel: GLP; settings: read-out: Control IC50*
T3 sequence (Q9H9B1 1-1298): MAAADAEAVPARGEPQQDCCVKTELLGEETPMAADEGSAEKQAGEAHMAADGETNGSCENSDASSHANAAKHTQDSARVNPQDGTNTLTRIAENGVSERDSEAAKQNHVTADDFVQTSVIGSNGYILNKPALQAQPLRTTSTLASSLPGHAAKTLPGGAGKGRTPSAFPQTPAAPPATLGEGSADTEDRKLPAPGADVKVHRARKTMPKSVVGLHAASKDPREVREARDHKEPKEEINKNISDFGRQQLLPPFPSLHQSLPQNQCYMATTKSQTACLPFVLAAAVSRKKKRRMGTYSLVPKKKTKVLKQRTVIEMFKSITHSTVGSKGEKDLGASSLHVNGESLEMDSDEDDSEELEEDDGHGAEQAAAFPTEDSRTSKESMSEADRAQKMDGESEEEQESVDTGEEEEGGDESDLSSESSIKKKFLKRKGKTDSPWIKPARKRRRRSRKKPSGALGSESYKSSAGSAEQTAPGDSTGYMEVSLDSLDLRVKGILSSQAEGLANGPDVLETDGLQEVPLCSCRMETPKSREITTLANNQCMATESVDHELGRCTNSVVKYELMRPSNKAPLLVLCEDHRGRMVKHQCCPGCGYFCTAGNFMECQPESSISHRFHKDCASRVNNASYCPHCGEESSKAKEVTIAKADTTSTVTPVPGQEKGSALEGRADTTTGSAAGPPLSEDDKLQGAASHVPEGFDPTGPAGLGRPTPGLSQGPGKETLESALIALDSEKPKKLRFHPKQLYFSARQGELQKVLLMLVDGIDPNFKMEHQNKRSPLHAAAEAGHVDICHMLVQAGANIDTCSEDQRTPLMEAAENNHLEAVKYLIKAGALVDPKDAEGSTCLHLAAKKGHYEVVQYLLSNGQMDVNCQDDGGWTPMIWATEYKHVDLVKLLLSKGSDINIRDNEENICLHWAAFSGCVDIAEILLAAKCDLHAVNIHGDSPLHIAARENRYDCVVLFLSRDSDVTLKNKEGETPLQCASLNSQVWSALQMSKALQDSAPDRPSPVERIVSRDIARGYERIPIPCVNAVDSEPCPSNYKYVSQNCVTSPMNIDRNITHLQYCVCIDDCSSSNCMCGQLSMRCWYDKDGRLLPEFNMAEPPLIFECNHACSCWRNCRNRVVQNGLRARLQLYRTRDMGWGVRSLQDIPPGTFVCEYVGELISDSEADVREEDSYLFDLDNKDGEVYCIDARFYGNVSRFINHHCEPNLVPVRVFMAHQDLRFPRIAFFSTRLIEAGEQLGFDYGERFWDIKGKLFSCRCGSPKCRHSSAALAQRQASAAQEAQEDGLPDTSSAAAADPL
Protocol: as §1

METTL21A = METTL21A (Homo sapiens, UniProt Q8WXB1); experiment: Methyltransferase inhibition panel: METTL21A; settings: control compound; substrate HSPA8-[CTD] 2.5 μM
Protocol: as §1

MLL1 Complex = MLL1 Complex (Homo sapiens, UniProt Q03164); experiment: Methyltransferase inhibition panel: MLL1 Complex; settings: control compound; substrate Nucleosomes 0.05 mg/mL
Protocol: as §1

MLL2 Complex = MLL2 Complex (Homo sapiens, UniProt O14686); experiment: Methyltransferase inhibition panel: MLL2 Complex; settings: control compound; substrate Nucleosomes 0.05 mg/mL
Protocol: as §1

MLL3 Complex = MLL3 Complex (Homo sapiens, UniProt Q8NEZ4); experiment: Methyltransferase inhibition panel: MLL3 Complex; settings: control compound; substrate Nucleosomes 0.05 mg/mL
Protocol: as §1

MLL4 Complex = MLL4 Complex (Homo sapiens, UniProt Q9UMN6); experiment: Methyltransferase inhibition panel: MLL4 Complex; settings: control compound; substrate Nucleosomes 0.05 mg/mL
Protocol: as §1

NRMT1 = target: T4, NRMT1 (Homo sapiens, UniProt Q9BV86); experiment: Methyltransferase inhibition panel: NRMT1; settings: control compound; substrate RCC1 5 μM
T4 sequence (Q9BV86 1-223): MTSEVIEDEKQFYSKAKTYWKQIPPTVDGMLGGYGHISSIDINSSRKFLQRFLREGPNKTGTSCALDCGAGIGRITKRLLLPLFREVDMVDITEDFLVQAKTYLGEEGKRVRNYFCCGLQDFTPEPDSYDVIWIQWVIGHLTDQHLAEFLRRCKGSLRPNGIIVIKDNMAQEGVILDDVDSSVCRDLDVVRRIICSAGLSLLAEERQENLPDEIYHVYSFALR
Protocol: as §1

NSD1 = NSD1 (Homo sapiens, UniProt Q96L73); experiment: Methyltransferase inhibition panel: NSD1; settings: control compound; substrate Nucleosomes 0.05 mg/mL
Protocol: as §1

PRMT3 = PRMT3 (Homo sapiens, UniProt O60678); experiment: Methyltransferase inhibition panel: PRMT3; settings: control compound; substrate Histone H4 5 μM
Protocol: as §1

PRMT6 = PRMT6 (Homo sapiens, UniProt Q96LA8); experiment: Methyltransferase inhibition panel: PRMT6; settings: control compound; substrate GST-GAR 5 μM
Protocol: as §1

SET1b Complex = SET1b Complex (Homo sapiens, UniProt Q9UPS6); experiment: Methyltransferase inhibition panel: SET1b Complex; settings: control compound; substrate Core Histone 0.05 mg/mL
Protocol: as §1

SET7/9 = target: T5, SET7/9 (Homo sapiens, UniProt Q8WTS6); experiment: Methyltransferase inhibition panel: SET7/9; settings: control compound; substrate Core Histone 0.05 mg/mL
T5 sequence (Q8WTS6 1-366): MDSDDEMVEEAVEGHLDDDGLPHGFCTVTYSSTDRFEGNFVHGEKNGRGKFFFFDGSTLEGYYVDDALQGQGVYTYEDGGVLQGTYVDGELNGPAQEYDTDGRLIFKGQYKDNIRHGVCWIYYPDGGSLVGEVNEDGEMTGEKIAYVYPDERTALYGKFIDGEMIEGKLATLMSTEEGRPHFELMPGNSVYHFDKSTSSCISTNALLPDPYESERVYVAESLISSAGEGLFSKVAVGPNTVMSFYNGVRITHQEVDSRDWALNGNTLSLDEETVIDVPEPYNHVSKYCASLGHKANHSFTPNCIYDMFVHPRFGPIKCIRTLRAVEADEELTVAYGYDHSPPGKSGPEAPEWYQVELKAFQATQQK
Protocol: as §1

SETDB1 = SETDB1 (Homo sapiens, UniProt Q15047); experiment: Methyltransferase inhibition panel: SETDB1; settings: control compound; substrate Histone H3 5 μM
Protocol: as §1

SETD2 = SETD2 (Homo sapiens, UniProt Q9BYW2); experiment: Methyltransferase inhibition panel: SETD2; settings: control compound; substrate Nucleosomes 0.05 mg/mL
Protocol: as §1

SMYD3 = target: T6, SMYD3 (Homo sapiens, UniProt Q9H7B4); experiment: Methyltransferase inhibition panel: SMYD3; settings: control compound; substrate MEKK2 0.5 μM
T6 sequence (Q9H7B4 1-428): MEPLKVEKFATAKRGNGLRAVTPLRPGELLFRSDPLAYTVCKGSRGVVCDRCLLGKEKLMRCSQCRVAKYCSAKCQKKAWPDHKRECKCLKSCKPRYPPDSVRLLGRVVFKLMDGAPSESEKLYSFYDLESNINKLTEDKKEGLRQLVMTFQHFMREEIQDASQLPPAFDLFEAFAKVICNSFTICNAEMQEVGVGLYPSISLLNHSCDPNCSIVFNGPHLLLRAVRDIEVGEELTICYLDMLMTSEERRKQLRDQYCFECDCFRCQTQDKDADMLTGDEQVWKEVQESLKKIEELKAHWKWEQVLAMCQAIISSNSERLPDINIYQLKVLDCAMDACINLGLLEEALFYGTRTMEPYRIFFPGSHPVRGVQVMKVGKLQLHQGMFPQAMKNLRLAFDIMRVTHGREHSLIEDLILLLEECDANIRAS
Protocol: as §1

SUV39H2 = SUV39H2 (Homo sapiens, UniProt Q9H5I1); experiment: Methyltransferase inhibition panel: SUV39H2; settings: control compound; substrate Histone H3 5 μM
Protocol: as §1

SUV420H1TV2 = SUV420H1TV2 (Homo sapiens, UniProt Q4FZB7); experiment: Methyltransferase inhibition panel: SUV420H1TV2; settings: control compound; substrate Nucleosomes 0.05 mg/mL
Protocol: as §1

Sequence of MLL1 Complex (Q03164 3745-3969): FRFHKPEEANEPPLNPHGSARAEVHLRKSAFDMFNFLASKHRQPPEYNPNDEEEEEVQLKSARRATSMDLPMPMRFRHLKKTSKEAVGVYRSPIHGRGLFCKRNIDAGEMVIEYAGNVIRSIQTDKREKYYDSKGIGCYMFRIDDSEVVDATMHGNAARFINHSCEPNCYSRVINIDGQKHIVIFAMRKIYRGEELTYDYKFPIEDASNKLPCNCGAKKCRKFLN
Sequence of MLL1 Complex (Q9UBL3 96-628, further chain): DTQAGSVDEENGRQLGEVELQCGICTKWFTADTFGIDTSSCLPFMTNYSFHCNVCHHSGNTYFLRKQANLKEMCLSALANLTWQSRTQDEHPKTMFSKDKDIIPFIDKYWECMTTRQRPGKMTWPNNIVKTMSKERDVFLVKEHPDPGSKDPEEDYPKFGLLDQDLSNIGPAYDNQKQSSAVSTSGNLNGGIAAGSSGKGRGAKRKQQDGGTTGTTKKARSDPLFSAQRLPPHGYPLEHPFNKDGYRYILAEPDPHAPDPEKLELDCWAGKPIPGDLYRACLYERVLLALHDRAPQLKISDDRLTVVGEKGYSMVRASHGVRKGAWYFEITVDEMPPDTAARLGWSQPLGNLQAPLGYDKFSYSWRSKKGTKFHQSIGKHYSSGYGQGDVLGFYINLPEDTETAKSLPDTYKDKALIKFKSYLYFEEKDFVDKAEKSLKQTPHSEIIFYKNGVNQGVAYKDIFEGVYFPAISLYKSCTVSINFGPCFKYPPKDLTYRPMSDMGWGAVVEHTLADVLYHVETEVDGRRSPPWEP
Sequence of MLL1 Complex (Q9C005 whole entry, further chain): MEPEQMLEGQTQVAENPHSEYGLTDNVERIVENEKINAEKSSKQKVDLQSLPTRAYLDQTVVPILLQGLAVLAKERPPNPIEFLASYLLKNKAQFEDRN
Sequence of MLL1 Complex (Q15291 whole entry, further chain): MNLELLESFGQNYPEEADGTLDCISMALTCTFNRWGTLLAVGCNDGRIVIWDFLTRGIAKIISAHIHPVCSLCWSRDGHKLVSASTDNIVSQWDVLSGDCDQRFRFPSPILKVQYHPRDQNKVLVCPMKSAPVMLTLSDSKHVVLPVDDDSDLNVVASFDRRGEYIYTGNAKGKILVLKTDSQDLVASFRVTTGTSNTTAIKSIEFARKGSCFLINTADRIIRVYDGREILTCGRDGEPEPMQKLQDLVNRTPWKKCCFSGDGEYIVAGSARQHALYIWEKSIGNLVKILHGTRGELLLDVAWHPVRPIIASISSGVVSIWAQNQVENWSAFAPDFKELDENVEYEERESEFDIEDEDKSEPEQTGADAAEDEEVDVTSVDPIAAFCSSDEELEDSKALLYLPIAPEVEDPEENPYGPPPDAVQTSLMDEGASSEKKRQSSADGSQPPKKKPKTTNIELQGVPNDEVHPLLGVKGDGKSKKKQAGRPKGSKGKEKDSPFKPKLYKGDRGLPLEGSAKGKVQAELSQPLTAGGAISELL
Sequence of PRMT3 (O60678 whole entry): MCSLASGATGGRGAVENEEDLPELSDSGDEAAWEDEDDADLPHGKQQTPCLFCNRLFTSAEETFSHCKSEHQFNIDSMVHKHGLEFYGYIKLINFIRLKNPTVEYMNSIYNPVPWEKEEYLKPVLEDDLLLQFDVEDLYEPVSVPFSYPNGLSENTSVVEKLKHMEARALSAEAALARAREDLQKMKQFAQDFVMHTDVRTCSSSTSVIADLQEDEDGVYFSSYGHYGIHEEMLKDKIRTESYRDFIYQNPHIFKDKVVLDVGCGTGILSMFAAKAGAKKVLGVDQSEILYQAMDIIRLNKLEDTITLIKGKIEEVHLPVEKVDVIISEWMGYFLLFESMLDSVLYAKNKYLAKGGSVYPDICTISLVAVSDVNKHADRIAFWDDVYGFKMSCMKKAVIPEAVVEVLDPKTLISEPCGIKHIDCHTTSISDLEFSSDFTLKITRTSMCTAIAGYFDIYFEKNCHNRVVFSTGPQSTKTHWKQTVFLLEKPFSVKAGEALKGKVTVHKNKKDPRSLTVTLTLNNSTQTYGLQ
Sequence of SUV420H1TV2 (Q4FZB7 1-393 isoform Q4FZB7-2): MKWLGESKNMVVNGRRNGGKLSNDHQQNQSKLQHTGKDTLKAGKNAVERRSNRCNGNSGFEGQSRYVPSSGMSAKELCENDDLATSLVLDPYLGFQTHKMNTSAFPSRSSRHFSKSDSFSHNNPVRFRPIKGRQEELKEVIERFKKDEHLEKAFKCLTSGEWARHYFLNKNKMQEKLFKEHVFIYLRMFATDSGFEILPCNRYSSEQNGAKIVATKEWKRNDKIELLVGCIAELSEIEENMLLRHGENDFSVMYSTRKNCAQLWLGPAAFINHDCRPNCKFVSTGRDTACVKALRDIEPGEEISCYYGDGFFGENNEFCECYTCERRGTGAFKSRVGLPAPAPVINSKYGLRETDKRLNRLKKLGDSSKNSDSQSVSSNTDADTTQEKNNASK
Sequence of SUV39H2 (Q9H5I1 whole entry): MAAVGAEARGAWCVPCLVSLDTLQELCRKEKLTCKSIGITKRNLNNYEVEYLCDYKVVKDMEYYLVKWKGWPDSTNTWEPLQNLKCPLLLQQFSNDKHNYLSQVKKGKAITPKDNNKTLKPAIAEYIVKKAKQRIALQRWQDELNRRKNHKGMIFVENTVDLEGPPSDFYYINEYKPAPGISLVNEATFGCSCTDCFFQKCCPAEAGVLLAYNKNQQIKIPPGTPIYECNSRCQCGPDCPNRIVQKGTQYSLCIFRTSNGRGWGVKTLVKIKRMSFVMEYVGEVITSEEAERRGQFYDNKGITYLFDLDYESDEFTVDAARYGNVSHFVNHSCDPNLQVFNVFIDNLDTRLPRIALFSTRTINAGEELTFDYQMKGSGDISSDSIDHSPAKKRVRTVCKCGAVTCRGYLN
Sequence of DNMT3a (Q9Y6K1 whole entry, looked up): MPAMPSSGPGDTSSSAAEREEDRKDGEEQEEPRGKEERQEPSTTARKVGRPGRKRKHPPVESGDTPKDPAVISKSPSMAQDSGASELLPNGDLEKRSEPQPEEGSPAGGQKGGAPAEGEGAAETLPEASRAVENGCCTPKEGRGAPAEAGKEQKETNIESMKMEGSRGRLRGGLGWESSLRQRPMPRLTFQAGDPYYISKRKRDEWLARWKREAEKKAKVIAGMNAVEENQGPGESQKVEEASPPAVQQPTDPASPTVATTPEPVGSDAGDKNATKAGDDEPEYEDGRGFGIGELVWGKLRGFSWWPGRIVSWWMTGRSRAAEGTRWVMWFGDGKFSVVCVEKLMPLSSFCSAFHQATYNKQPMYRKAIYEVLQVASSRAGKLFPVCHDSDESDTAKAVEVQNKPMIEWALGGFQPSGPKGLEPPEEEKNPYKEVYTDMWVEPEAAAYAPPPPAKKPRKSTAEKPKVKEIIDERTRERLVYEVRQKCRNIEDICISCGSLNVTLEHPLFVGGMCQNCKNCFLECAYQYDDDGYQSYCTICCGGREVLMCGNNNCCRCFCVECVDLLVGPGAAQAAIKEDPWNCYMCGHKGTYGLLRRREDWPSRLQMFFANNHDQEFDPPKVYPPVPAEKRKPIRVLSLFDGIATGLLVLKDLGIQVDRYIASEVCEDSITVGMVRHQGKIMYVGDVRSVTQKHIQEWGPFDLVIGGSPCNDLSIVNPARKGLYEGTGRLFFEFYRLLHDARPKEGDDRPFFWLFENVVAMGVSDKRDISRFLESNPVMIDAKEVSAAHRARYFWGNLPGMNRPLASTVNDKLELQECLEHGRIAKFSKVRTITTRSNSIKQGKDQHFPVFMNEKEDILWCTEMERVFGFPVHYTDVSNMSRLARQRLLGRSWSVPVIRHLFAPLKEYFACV
Sequence of MLL2 Complex (O14686 5319-5537): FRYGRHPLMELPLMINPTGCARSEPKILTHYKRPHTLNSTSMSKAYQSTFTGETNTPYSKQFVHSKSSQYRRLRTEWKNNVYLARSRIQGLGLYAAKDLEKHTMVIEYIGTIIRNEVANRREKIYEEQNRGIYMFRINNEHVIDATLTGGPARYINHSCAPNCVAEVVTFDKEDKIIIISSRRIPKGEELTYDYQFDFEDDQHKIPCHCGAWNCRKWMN
Sequence of MLL2 Complex (Q9UBL3 whole entry, further chain): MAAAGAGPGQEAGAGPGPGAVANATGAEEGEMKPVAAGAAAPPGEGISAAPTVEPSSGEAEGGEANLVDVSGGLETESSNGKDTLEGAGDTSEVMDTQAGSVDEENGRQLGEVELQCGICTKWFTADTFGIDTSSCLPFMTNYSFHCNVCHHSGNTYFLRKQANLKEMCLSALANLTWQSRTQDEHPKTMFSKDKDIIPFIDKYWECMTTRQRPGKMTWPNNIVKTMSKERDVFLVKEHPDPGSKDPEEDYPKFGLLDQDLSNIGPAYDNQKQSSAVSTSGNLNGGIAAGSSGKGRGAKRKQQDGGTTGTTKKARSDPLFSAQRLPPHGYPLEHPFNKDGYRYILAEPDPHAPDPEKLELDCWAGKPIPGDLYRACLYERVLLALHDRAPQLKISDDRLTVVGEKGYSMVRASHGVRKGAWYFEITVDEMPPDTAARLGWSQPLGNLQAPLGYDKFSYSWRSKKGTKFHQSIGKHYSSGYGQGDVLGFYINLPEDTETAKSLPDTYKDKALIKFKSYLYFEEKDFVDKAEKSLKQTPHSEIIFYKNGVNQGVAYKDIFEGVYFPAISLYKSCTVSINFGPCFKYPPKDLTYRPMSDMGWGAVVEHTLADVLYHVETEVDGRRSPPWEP
Sequence of MLL2 Complex (Q9C005 whole entry, further chain): as the sequence (Q9C005 whole entry, further chain) above
Sequence of MLL2 Complex (Q15291 whole entry, further chain): as the sequence (Q15291 whole entry, further chain) above
Sequence of PRMT6 (Q96LA8 whole entry): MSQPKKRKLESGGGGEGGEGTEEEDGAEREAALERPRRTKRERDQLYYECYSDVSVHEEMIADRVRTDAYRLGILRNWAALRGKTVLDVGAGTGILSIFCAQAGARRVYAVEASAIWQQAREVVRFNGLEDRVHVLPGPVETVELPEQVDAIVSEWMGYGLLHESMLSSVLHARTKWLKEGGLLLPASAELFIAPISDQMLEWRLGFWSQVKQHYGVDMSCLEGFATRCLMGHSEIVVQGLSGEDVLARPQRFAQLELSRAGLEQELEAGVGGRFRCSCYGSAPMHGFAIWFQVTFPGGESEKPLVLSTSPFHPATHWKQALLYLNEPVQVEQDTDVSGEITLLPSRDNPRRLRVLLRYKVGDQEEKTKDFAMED

Cc1ccc(NC2=CC(=O)c3sc(C)nc3C2=O)cc1 [Ryuvidine, reference compound]
IC50 (SET8): 109 nM

CN1C(=O)[C@@]23C[C@]4([C@]56C[C@@]78SS[C@@](CO)(C(=O)N7[C@H]5Nc5ccccc56)N(C)C8=O)c5ccccc5N[C@@H]4N2C(=O)[C@]1(CO)SS3 [Chaetocin, reference compound]
IC50 (ASH1L): 30.8 nM | IC50 (NSD3): 85.2 nM

Nc1ncnc2c1ncn2[C@@H]1O[C@H](CSCC[C@H](N)C(=O)O)[C@@H](O)[C@H]1O [SAH, reference compound]
IC50 (DNMT3a): 154 nM | IC50 (DNMT3b): 37.9 nM | IC50 (DNMT3b/3L): 19.3 nM | IC50 (GLP): 553 nM | IC50 (METTL21A): 64.6 µM | IC50 (MLL1 Complex): 205 nM | IC50 (MLL2 Complex): 21.2 µM | IC50 (MLL3 Complex): 18.9 µM | IC50 (MLL4 Complex): 816 nM | IC50 (NRMT1): 310 nM | IC50 (NSD1): 7.51 µM | IC50 (PRMT3): 870 nM | IC50 (PRMT6): 204 nM | IC50 (SET1b Complex): 8.59 µM | IC50 (SET7/9): 82.9 µM | IC50 (SETDB1): 1040 nM | IC50 (SETD2): 3.06 µM | IC50 (SMYD3): 14.2 µM | IC50 (SUV39H2): 44.3 µM | IC50 (SUV420H1TV2): 117 µM
